Results: US20080176898A1, “Phenyl Acetamides” (Bayer HealthCare AG, priority 2004, published 2008)

Assays:
human CysLT1 receptor = target: T1, human CysLT1 receptor (Homo sapiens, UniProt Q9Y271); assay: Cellular in vitro test to determine the CysLT1 activity (aequorin luminescence, CHO K1 cells); format: cell-based; details: recombinant CHO K1 cells with aequorin and human CysLT1 receptor; antagonism of LTD4 (3×10^−9 M) induced calcium release; 15 minutes preincubation
T1 construct: expressed in transfected cells; host or cells: CHO K1 cells constitutively expressing aequorin
T1 sequence (Q9Y271 1-337): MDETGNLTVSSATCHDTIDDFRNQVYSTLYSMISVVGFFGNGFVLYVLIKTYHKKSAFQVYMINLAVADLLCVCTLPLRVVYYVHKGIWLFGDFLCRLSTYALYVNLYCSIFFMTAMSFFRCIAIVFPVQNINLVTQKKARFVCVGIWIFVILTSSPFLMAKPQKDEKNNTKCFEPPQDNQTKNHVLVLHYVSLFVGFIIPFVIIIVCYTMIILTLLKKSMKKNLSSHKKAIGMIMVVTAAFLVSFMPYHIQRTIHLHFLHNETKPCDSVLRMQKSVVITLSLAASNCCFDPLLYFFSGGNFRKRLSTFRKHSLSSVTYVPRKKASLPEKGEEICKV
From the text: 2. Cellular In Vitro Test to Determine the CysLT1 Activity
A recombinant cell line is used to identify antagonists of the human cysteinyl-leukotriene 1 receptor (CysLT1R) and to quantify the activity of the substances described herein. The cell is originally derived from a hamster ovary epithelial cell (Chinese Hamster Ovary, CHO K1, ATCC: American Type Culture Collection, Manassas, Va. 20108, USA). The test cell line constitutively expresses the calcium-sensitive photoprotein aequorin which, after reconstitution with the cofactor coelenterazine, emits light when the cytoplasmic calcium concentration is increased (Rizzuto R, Simpson A W, Brini M, Pozzan T.; Nature 358 (1992) 325-327). The cell is additionally stably transfected with the human CysLT1 receptor (Lynch et al., Nature 399 (1999) 789-793). The resulting CysLT1R test cell responds to stimulation of the recombinant CysLT1 receptor (agonist: leukotriene D4 (LTD4)) with an intracellular release of calcium ions, which can be quantified through the resulting aequorin luminescence with a suitable luminometer (Milligan G, Marshall F, Rees S, Trends in Pharmacological Sciences 17 (1996) 235-237). Preincubation with antagonists of the CysLT1 receptor reduces the calcium release induced by the agonist LTD4 and thus the measured amount of light.
(§1) Test procedure: The cells are plated out two days before the test in culture medium (DMEM/F12 with Glutamax, Gibco Cat. #61965-026; 10% FCS, Gibco Cat. #10270-106; 1.4 mM sodium pyruvate, Gibco Cat. #11360-039; 1.8 mM sodium bicarbonate, Gibco Cat. #25080-060; 10 mM HEPES, Gibco Cat. #15290-026; now belongs to Invitrogen GmbH, 76131 Karlsruhe) in 384- (or 1536-)well microtiter plates and kept in a cell incubator (96% humidity, 5% v/v CO2, 37° C.). On the day of the test, the culture medium is replaced by Tyrode solution (in mM: 140 NaCl, 5 KCl, 1 MgCl2, 2 CaCl2, 20 glucose, 20 HEPES) which additionally contains the cofactor coelenterazine (50 μM), and the microtiter plate is then incubated for a further 3-4 hours. 15 minutes after the test substances have been transferred into the wells of the microtiter plate, the resulting light signal is measured after addition of the LID4 (3×10^−9 M) in the luminometer.

human CysLT2 receptor = target: T2, human CysLT2 receptor (Homo sapiens, UniProt Q9NS75); assay: Cellular in vitro test to determine the CysLT2 activity (aequorin luminescence, CHO K1 cells); format: cell-based; details: recombinant CHO K1 cells with aequorin and human CysLT2 receptor; antagonism of LTD4 (3×10^−8 M) induced calcium release; 15 minutes preincubation
T2 construct: expressed in transfected cells; host or cells: CHO K1 cells constitutively expressing aequorin
T2 sequence (Q9NS75 1-346): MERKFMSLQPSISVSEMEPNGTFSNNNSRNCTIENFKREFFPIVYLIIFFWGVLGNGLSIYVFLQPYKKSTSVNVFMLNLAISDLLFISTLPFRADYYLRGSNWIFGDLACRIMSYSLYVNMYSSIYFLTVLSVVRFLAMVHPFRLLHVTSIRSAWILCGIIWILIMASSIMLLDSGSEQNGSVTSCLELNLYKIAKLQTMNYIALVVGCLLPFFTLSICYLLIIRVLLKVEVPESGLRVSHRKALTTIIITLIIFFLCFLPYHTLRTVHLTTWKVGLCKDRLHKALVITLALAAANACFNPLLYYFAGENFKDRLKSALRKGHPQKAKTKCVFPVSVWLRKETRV
From the text: 1. Cellular In Vitro Test to Determine the CysLT2 Activity
A recombinant cell line is used to identify antagonists of the human cysteinyl-leukotriene 2 receptor (CysLT2R) and to quantify the activity of the substances described herein. The cell is originally derived from a hamster ovary epithelial cell (Chinese Hamster Ovary, CHO K1, ATCC: American Type Culture Collection, Manassas, Va. 20108, USA). The test cell line constitutively expresses the calcium-sensitive photoprotein aequorin which, after reconstitution with the cofactor coelenterazine, emits light when the cytoplasmic calcium concentration is increased (Rizzuto R, Simpson A W, Brini M, Pozzan T.; Nature 358 (1992) 325-327). The cell is additionally stably transfected with the human CysLT2 receptor (Heise et.al., JBC 275 (2000) 30531-30536). The resulting CysLT2R test cell responds to stimulation of the recombinant CysLT2 receptor (agonists: leukotriene D4 (LTD4) and leukotriene C4 (LTC4)) with an intracellular release of calcium ions, which can be quantified through the resulting aequorin luminescence with a suitable luminometer (Milligan G, Marshall F, Rees S, Trends in Pharmacological Sciences 17 (1996) 235-237). Preincubation with antagonists of the CysLT2 receptor reduces the calcium release induced by the agonists LTD4 and LTC4 and thus the measured amount of light.
as §1, with “384-(or” for “384- (or”, “[…]” for “3-4”, “LTD4 (3×10^−8” for “LID4 (3×10^−9”

| IC50 (human CysLT1 receptor) [nM] | IC50 (human CysLT2 receptor) [nM] | SMILES |
| --- | --- | --- |
| > 3000 | 70 | O=C(O)c1ccc(OCCCc2ccc(OCCCC3CCCCC3)cc2)c(CC(=O)N2CCC(C(=O)O)CC2)c1 [Example 33, 1-[(5-Carboxy-2-{3-[4-(3-cyclohexylpropoxy)phenyl]propoxy}phenyl)acetyl]piperidine-4-carboxylic acid] |
| > 3000 | 75 | O=C(O)CNC(=O)Cc1cc(C(=O)O)ccc1OCCCc1ccc(OCCCC2CCCCC2)cc1 [Example 45, 3-{2-[(Carboxymethyl)amino]-2-oxoethyl}-4-{3-[4-(3-cyclohexylpropoxy)phenyl]propoxy}-benzoic acid] |

The remaining lines, values behind:

| SMILES | IC50 (human CysLT1 receptor) [nM] | IC50 (human CysLT2 receptor) [nM] |
| --- | --- | --- |
| O=C(O)CCCNC(=O)Cc1cc(C(=O)O)ccc1OCCCc1ccc(OCCCCOc2ccccc2)cc1 [Example 13, 3-{2-[(3-Carboxypropyl)amino]-2-oxoethyl}-4-{3-[4-(4-phenoxybutoxy)phenyl]propoxy}benzoic acid] | > 10000 | 140 |
| O=C(O)c1ccc(OCCCc2ccc(OCCCCOC3CCCCC3)cc2)c(CC(=O)N2CCCC(C(=O)O)C2)c1 (stereo not shown) [Example 25, 1-{[5-Carboxy-2-(3-{4-[4-(cyclohexyloxy)butoxy]phenyl}propoxy)phenyl]acetyl}piperidine-3-carboxylic acid] | > 10000 | 45 |
| O=C(O)CCCNC(=O)Cc1cc(C(=O)O)ccc1OCCCc1ccc(OCCCC2CCCCC2)cc1 [Example 31, 3-{2-[(3-Carboxypropyl)amino]-2-oxoethyl}-4-{3-[4-(3-cyclohexylpropoxy)phenyl]propoxy}-benzoic acid] | > 10000 | 45 |
